Measured values published in ChEMBL document CHEMBL1201862, “PubChem BioAssay data set” (2004).
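Dose response: 5 concentrations. Exposure: 48 h. Format: 96-well plates. Endpoint: linear interpolation; highest concentration if not reached. GI50 is the concentration that inhibits growth by half.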 Calls of active or inactive are those of the source. Rule as the data show it: active = GI50 up to about 1.1 µM and inactive = higher. Where a SMILES comes first, the peptide text is derived from it. [ ]: non-standard residue; d: D form. The star is where a group is joined. Phe(4-NO2) = N[CH](Cc1ccc([N+](=O)[O-])cc1)C(=O)O; Cbz = O=C(OCc1ccccc1)*

Key:
Experiment in all cases: inhibition of tumour cell growth, NCI panel, 48 h
786-0 = tested on: 786-0
K562 = tested on: K562
CCRF-CEM = tested on: CCRF-CEM
DU-145 = tested on: DU-145
OVCAR-5 = tested on: OVCAR-5
U-251 = tested on: U-251
SF-295 = tested on: SF-295
SF-539 = tested on: SF-539
NCI-H522 = tested on: NCI-H522
SK-MEL-2 = tested on: SK-MEL-2
SK-MEL-28 = tested on: SK-MEL-28
SNB-75 = tested on: SNB-75
UACC-257 = tested on: UACC-257
HCT-15 = tested on: HCT-15
HOP-62 = tested on: HOP-62
SK-MEL-5 = tested on: SK-MEL-5
EKVX = tested on: EKVX
HCC 2998 = tested on: HCC 2998
RXF 393 = tested on: RXF 393
HOP-92 = tested on: HOP-92

Measured: GI50

Cc1cc(S(=O)(=O)/N=C2\NCCN2Cc2ccccc2)c(S)cc1Cl
> 100 µM: HCT-15
inactive: 786-0 > 100 µM | K562 > 100 µM | CCRF-CEM 7.35 µM | DU-145 > 100 µM | OVCAR-5 > 100 µM | U-251 > 100 µM | SF-295 81.7 µM | SF-539 > 100 µM | NCI-H522 40.6 µM | SK-MEL-2 > 100 µM | SK-MEL-28 > 100 µM | SNB-75 > 100 µM | UACC-257 > 100 µM | HOP-62 76.2 µM | SK-MEL-5 > 100 µM | EKVX > 100 µM | HCC 2998 > 100 µM

[N-]=[N+]=Nc1c(Cc2ccccc2)c(=O)oc2ccccc12
inactive: 786-0 40.6 µM | K562 18.6 µM | CCRF-CEM 12.7 µM | DU-145 51.9 µM | OVCAR-5 61.9 µM | U-251 24.4 µM | SF-295 33.4 µM | SF-539 > 10 µM | SK-MEL-2 28.1 µM | RXF 393 16.7 µM | SK-MEL-28 > 10 µM | SNB-75 28.6 µM | UACC-257 45.8 µM | HOP-62 20.7 µM | SK-MEL-5 2.67 µM | HCC 2998 26 µM
31 µM: HCT-15

CCC(=O)N/S(=N/S(=O)(=O)c1ccccc1)C(Cl)(Cl)Cl (stereo not given)
inactive: 786-0 > 100 µM | K562 > 100 µM | CCRF-CEM > 100 µM | DU-145 > 100 µM | OVCAR-5 > 100 µM | U-251 > 100 µM | SF-295 > 100 µM | SF-539 > 100 µM | HOP-92 > 100 µM | SK-MEL-2 > 100 µM | RXF 393 > 100 µM | SK-MEL-28 > 100 µM | SNB-75 > 100 µM | UACC-257 > 100 µM | HOP-62 > 100 µM | SK-MEL-5 > 100 µM | EKVX > 100 µM | HCC 2998 > 100 µM
> 100 µM: HCT-15

NS(=O)(=O)c1cc2c(cc1Cl)NC(C(=O)c1cc(=O)c3ccc(O)cc3o1)=NS2(=O)=O
> 100 µM: HCT-15
inactive: 786-0 > 100 µM | K562 > 100 µM | CCRF-CEM > 100 µM | OVCAR-5 > 100 µM | U-251 > 100 µM | SF-295 > 100 µM | SF-539 > 100 µM | HOP-92 > 100 µM | NCI-H522 > 100 µM | SK-MEL-2 > 100 µM | RXF 393 > 100 µM | SK-MEL-28 > 100 µM | SNB-75 97.7 µM | UACC-257 > 100 µM | HOP-62 > 100 µM | SK-MEL-5 > 100 µM | EKVX > 100 µM | HCC 2998 > 100 µM

COc1ccc(C(=O)/C=C/c2ccc(OCCCOc3ccc(/C=C/C(=O)c4ccc(OC)c(OC)c4)cc3)cc2)cc1OC
inactive: 786-0 > 100 µM | K562 > 100 µM | CCRF-CEM > 100 µM | DU-145 > 100 µM | U-251 > 100 µM | SF-295 > 100 µM | SF-539 > 100 µM | SK-MEL-2 > 100 µM | RXF 393 > 100 µM | SK-MEL-28 > 100 µM | SNB-75 > 100 µM | UACC-257 > 100 µM | HOP-62 > 100 µM | SK-MEL-5 > 100 µM | EKVX > 100 µM | HCC 2998 > 100 µM
> 100 µM: HCT-15

CC12CCCCC1C(=O)C2(Cl)Cl (stereo not given)
3.35 µM: HCT-15
inactive: 786-0 1.83 µM | K562 1.83 µM | CCRF-CEM 1.42 µM | OVCAR-5 2.56 µM | U-251 2.21 µM | SF-295 1.66 µM | SF-539 2.17 µM | HOP-92 1.69 µM | NCI-H522 1.89 µM | SK-MEL-2 1.95 µM | RXF 393 3.72 µM | SK-MEL-28 1.8 µM | SNB-75 3.34 µM | UACC-257 2.06 µM | HOP-62 1.6 µM | SK-MEL-5 1.83 µM | EKVX 2.76 µM | HCC 2998 1.79 µM

CC1(C)N=C(Oc2ccccc2)n2nccc2N1
inactive: 786-0 59.4 µM | K562 82.8 µM | CCRF-CEM > 100 µM | OVCAR-5 > 100 µM | U-251 > 100 µM | SF-295 > 100 µM | SF-539 > 100 µM | HOP-92 > 100 µM | NCI-H522 40.9 µM | SK-MEL-2 > 100 µM | RXF 393 > 100 µM | SK-MEL-28 > 100 µM | SNB-75 > 100 µM | UACC-257 > 100 µM | HOP-62 > 100 µM | SK-MEL-5 > 100 µM | EKVX > 100 µM | HCC 2998 > 100 µM
> 100 µM: HCT-15

O=c1[nH]c2cccccc-2c1-c1nc2ccccc2[nH]1
21.9 µM: HCT-15
inactive: 786-0 18.2 µM | K562 34.5 µM | CCRF-CEM 25.5 µM | OVCAR-5 > 100 µM | U-251 21.8 µM | SF-295 30.5 µM | SF-539 22.4 µM | HOP-92 25.8 µM | NCI-H522 19.3 µM | SK-MEL-2 24.3 µM | RXF 393 20.9 µM | SK-MEL-28 20.3 µM | SNB-75 12.2 µM | UACC-257 > 100 µM | HOP-62 39.8 µM | SK-MEL-5 18.7 µM | EKVX 40.8 µM | HCC 2998 38.7 µM

CCOC(=O)c1[nH]c(-c2[nH]c(-c3[nH]c(-c4[nH]c(C(=O)OCC)c(C)c4C(=O)OCC)c(C(=O)OCC)c3C)c(C)c2C(=O)OCC)c(C(=O)OCC)c1C
inactive: 786-0 > 100 µM | K562 > 100 µM | CCRF-CEM > 100 µM | DU-145 > 100 µM | OVCAR-5 > 100 µM | U-251 > 100 µM | SF-295 > 100 µM | SF-539 > 100 µM | NCI-H522 > 100 µM | SK-MEL-2 > 100 µM | RXF 393 > 100 µM | SK-MEL-28 > 100 µM | UACC-257 > 100 µM | HOP-62 > 100 µM | SK-MEL-5 50.4 µM | EKVX > 100 µM | HCC 2998 > 100 µM
> 100 µM: HCT-15

COc1ccc(-c2c3c(n(C4OC(CO)C(O)C(O)C4O)c(=S)c2C#N)CCC3)cc1 (stereo not given)
85.7 µM: HCT-15
inactive: 786-0 36 µM | K562 41.9 µM | CCRF-CEM 32.6 µM | DU-145 66.7 µM | OVCAR-5 74.6 µM | U-251 37.1 µM | SF-295 31.9 µM | SF-539 20.4 µM | HOP-92 28.6 µM | SK-MEL-2 58.5 µM | RXF 393 22.4 µM | SK-MEL-28 35.1 µM | SNB-75 59.4 µM | UACC-257 > 100 µM | HOP-62 40 µM | SK-MEL-5 14.8 µM | HCC 2998 66.2 µM

O=c1n(N=[S+]([O-])(c2ccccc2)c2ccccc2)c(=O)n2n1C1C=CC2CC1
> 100 µM: HCT-15
inactive: 786-0 > 100 µM | K562 > 100 µM | CCRF-CEM > 100 µM | DU-145 > 100 µM | OVCAR-5 > 100 µM | U-251 > 100 µM | SF-295 > 100 µM | SF-539 > 100 µM | HOP-92 > 100 µM | SK-MEL-2 > 100 µM | SK-MEL-28 > 100 µM | SNB-75 > 100 µM | UACC-257 > 100 µM | HOP-62 > 100 µM | SK-MEL-5 > 100 µM | EKVX > 100 µM

COc1ccc(OC)c2c(=O)cc(-c3ccccc3)[nH]c12
inactive: 786-0 > 100 µM | K562 > 100 µM | CCRF-CEM > 100 µM | DU-145 > 100 µM | OVCAR-5 > 100 µM | U-251 > 100 µM | SF-295 > 100 µM | NCI-H522 7.45 µM | SK-MEL-2 > 100 µM | RXF 393 > 100 µM | SK-MEL-28 > 100 µM | SNB-75 93.3 µM | UACC-257 > 100 µM | HOP-62 > 100 µM | SK-MEL-5 > 10 µM | EKVX > 100 µM | HCC 2998 > 100 µM
> 100 µM: HCT-15

COc1cc(Cc2cc3c(c(C(=O)O)c2Br)OCO3)cc(OC)c1OC
41.6 µM: HCT-15
inactive: 786-0 > 100 µM | K562 40.9 µM | CCRF-CEM 34.6 µM | DU-145 > 100 µM | OVCAR-5 > 100 µM | U-251 > 100 µM | SF-295 > 100 µM | SF-539 29.6 µM | HOP-92 55.5 µM | SK-MEL-2 > 100 µM | SK-MEL-28 > 100 µM | SNB-75 > 100 µM | UACC-257 > 100 µM | HOP-62 > 100 µM | SK-MEL-5 51.1 µM | EKVX > 100 µM | HCC 2998 > 100 µM

Oc1c2cc(Cl)cc1COCc1cc(Cl)cc(c1O)COCc1cc(Cl)cc(c1O)COC2
inactive: 786-0 9.42 µM | K562 67.5 µM | CCRF-CEM 9.44 µM | DU-145 28.2 µM | OVCAR-5 40.3 µM | U-251 29.4 µM | SF-295 > 100 µM | HOP-92 6.9 µM | SK-MEL-2 > 100 µM | RXF 393 18.3 µM | SK-MEL-28 > 100 µM | SNB-75 17.8 µM | UACC-257 > 100 µM | HOP-62 19.7 µM | SK-MEL-5 > 100 µM | EKVX 54 µM | HCC 2998 > 100 µM
36 µM: HCT-15

CCOC(=O)CCC(NC(=O)OCc1ccccc1)C(=O)NC(CCC(=O)OCC)C(=O)NC(Cc1ccc([N+](=O)[O-])cc1)C(=O)NC(CCC(=O)OCC)C(=O)NC(CCC(=O)OCC)C(=O)OCC (stereo not given) (Cbz-E(OEt)E(OEt)[Phe(4-NO2)]E(OEt)E(OEt)-OEt; configuration not given here)
inactive: 786-0 > 100 µM | CCRF-CEM > 100 µM | DU-145 > 100 µM | OVCAR-5 > 100 µM | U-251 > 100 µM | SF-295 > 100 µM | NCI-H522 > 100 µM | SK-MEL-2 > 100 µM | RXF 393 > 100 µM | SK-MEL-28 > 100 µM | SNB-75 > 100 µM | UACC-257 > 100 µM | HOP-62 > 100 µM | SK-MEL-5 > 100 µM | EKVX > 100 µM
> 100 µM: HCT-15
